# Data reported in patent publication US12365658B2, “Benzothia(di)azepine compounds and their use as bile acid modulators” (Albireo AB, priority 2021, dated 2025).
# Legend:
# Human LBAT = biological target: T1, Human LBAT (Homo sapiens, UniProt Q14973); test: LBAT (h/m) assay, human LBAT-overexpressing cells, 3H-taurocholic acid uptake; format: cell-based; settings: 0.3 μM 3H-taurocholic acid and 7.5 μM cold taurocholic acid, 20 minutes, read-out: hLBAT IC50
# T1 construct: expressed in transfected cells; kept under Geneticin selection
# T1 sequence (Q14973 1-349): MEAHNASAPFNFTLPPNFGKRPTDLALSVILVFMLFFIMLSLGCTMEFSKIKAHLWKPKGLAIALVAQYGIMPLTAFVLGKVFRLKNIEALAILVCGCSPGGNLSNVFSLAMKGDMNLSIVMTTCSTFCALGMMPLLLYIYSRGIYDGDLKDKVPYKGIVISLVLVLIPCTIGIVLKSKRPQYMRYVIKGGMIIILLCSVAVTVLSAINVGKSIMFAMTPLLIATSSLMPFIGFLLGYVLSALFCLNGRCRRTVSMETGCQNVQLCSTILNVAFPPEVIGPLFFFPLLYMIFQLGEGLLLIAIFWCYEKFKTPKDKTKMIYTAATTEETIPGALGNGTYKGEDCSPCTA
# Description: LBAT (h/m) Assay Protocol
# 20,000 cells (Human or Mouse LBAT-overexpressing cells) were seeded in 96-wells plate (Corning CLS3809) in 100 μL MEM-alpha medium (Gibco 12571-063) supplemented with 10% FBS (Gibco 10438026) containing Geneticin (Gibco 10131-027) (1 mg/mL) and incubated at 37° C. in 5% CO2 for 24 hours. After incubation, media was decanted from the wells and cells were washed two times with 300 μL of basal MEM-alpha medium (FBS-free). After decanting basal MEM-alpha medium each time, plates were tapped against paper towel to ensure maximum removal of residual media.
# For human LBAT, incubation mix was prepared by adding test inhibitor dilutions (3-fold serial dilution in DMSO (Sigma D2650), 10 points) in MEM-alpha (without FBS) containing 0.3 μM 3H-taurocholic acid (ARC ART-1368) and 7.5 μM cold taurocholic acid (Sigma T4009) (maintaining 0.2% final DMSO concentration). For mouse LBAT, incubation mix was prepared by adding test inhibitor dilutions (3-fold serial dilution in DMSO, 10 points) in MEM-alpha (without FBS) containing 0.3 μM 3H-taurocholic acid and 25 μM cold taurocholic acid maintaining 0.2% final DMSO concentration).
# 50 μL of incubation mix containing test inhibitors was then added to the wells (in duplicate) and the plates were incubated for 20 minutes in a CO2 incubator at 37° C. After incubation, the reaction was stopped by keeping the plates on ice water mix for 2-3 minutes and then the incubation mix was aspirated completely from the wells. The wells were washed two times with 250 μL of chilled unlabelled 1 mM taurocholic acid dissolved in HEPES (Gibco 15630080)-buffered (10 mM) HBSS (Gibco 14175079) (pH 7.4). The plates were tapped against a paper towel after every wash to ensure maximum removal of blocking buffer.
# 100 μL of MicroScint-20 (PerkinElmer 6013621) was added to the wells and kept overnight at room temperature before reading the plates in TopCount NXT™ Microplate Scintillation and Luminescence Counter from PerkinElmer under 3H Test protocol (set at 120 seconds reading time per well, with normal plate orientation).
# Preparation of Test Compound Dilutions
# All test compounds were provided in powder form at room temperature. 10 mM DMSO stocks of the test compounds were prepared, aliquoted and stored at −20° C. From the 10 mM DMSO stock of the compounds, a 3-fold serial dilution in DMSO was prepared to get a total of 10 dilutions of the test compounds. 0.5 μL of this dilution in DMSO was added to 250 μL of FBS-free basal media containing 3H-taurocholic acid and cold taurocholic acid to prepare the incubation mixture.
# Bioavailability studies = format: in vivo, Male mice (C57BL/6 or CD1) or Wistar rats; settings: male, plasma; single intravenous dose 1 mg/kg and single oral dose 10 mg/kg; species per compound not given
# Description: Male mice (C57BL/6 or CD1) or Wistar rats of 8-9 weeks old were used. For each test compound, two groups of 3 animals each were used. One group was administered a single intravenous dose of 1 mg/kg (vehicle 100% DMSO) through the tail vein and the other group was administered a single oral dose of 10 mg/kg through gavage needle. The group that was administered an oral dose was fasted overnight. Blood samples were collected after 0.083, 0.25, 0.5, 1, 2, 4, 6, 8 and 24 hours following intravenous administration, and after 0.25, 0.5, 1, 2, 4, 6, 8 and 24 hours following oral administration. Blood samples were taken from saphenous vein. 0.2% EDTA was used as the anticoagulant. The samples were analyzed by a discovery grade bioanalytical method developed for the estimation of test compound in plasma, using an LC-MS/MS system.
SMILES,IC50 (Human LBAT) [nM],bioavailability (Bioavailability studies) [%]
"CCCCC1CN(c2ccccc2)c2cc(SC)c(OCC(C)(OC)C(=O)O)cc2S(=O)(=O)N1C (single isomer, unassigned) [Example 23, 3-((3-Butyl-2-methyl-7-(methylthio)-1,1-dioxido-5-phenyl-2,3,4,5-tetrahydro-1,2,5-benzothiadiazepin-8-yl)oxy)-2-methoxy-2-methylpropanoic acid]",14,–
"CCCCC1CN(c2ccccc2)c2cc(SC)c(OCC(C)(OC)C(=O)O)cc2S(=O)(=O)N1C (single isomer, unassigned) [24, diastereomer 1]",8.4,–
"CCCCC1CN(c2ccccc2)c2cc(SC)c(OCC(C)(OC)C(=O)O)cc2S(=O)(=O)N1C (centres unmarked) [Example 22, 3-((3-Butyl-2-methyl-7-(methylthio)-1,1-dioxido-5-phenyl-2,3,4,5-tetrahydro-1,2,5-benzothiadiazepin-8-yl)oxy)-2-methoxy-2-methylpropanoic acid]",28,–
"CCCCC1CN(c2ccccc2)c2cc(SC)c(OCC(C)(OC)C(=O)O)cc2S(=O)(=O)N1C (single isomer, unassigned) [24, diastereomer 2]",16,–
"CCCCC1CN(c2ccccc2)c2cc(SC)c(OCC3(C(=O)O)CC3)cc2S(=O)(=O)N1C (centres unmarked) [Example 3, 1-(((3-Butyl-2-methyl-7-(methylthio)-1,1-dioxido-5-phenyl-2,3,4,5-tetrahydro-1,2,5-benzothiadiazepin-8-yl)oxy)methyl)cyclopropane-1-carboxylic acid]",13,–
"CCCCC1CN(c2ccccc2)c2cc(SC)c(OCC3(C(=O)O)CC3)cc2S(=O)(=O)N1C (single isomer, unassigned) [4, enantiomer 2]",7.4,17
"CCCCC1CN(c2ccccc2)c2cc(SC)c(OCC(C)(C)C(=O)O)cc2S(=O)(=O)N1C (single isomer, unassigned) [2, enantiomer 2]",2.3,100

# Continued, values first:
IC50 (Human LBAT) [nM],bioavailability (Bioavailability studies) [%],SMILES
3.3,–,"CCCCC1CN(c2ccc(F)cc2)c2cc(SC)c(OCC(C)(C)C(=O)O)cc2S(=O)(=O)N1C (centres unmarked) [Example 13, 3-((3-butyl-5-(4-fluorophenyl)-2-methyl-7-(methylthio)-1,1-dioxido-2,3,4,5-tetrahydro-1,2,5-benzothiadiazepin-8-yl)oxy)-2,2-dimethylpropanoic acid]"
25,–,"CCCCC1CN(c2ccccc2)c2cc(SCC)c(OCC3(C(=O)O)CC3)cc2S(=O)(=O)N1C (centres unmarked) [Example 7, 1-(((3-Butyl-7-(ethylthio)-2-methyl-1,1-dioxido-5-phenyl-2,3,4,5-tetrahydro-1,2,5-benzothiadiazepin-8-yl)oxy)methyl)cyclopropane-1-carboxylic acid]"
6,–,"CCCCC1CN(c2ccc(F)cc2)c2cc(SCC)c(OCC(O)C(=O)O)cc2S(=O)(=O)N1C (centres unmarked) [Example 33, 3-((3-butyl-7-(ethylthio)-5-(4-fluorophenyl)-2-methyl-1,1-dioxido-2,3,4,5-tetrahydro-1,2,5-benzothiadiazepin-8-yl)oxy)-2-hydroxypropanoic acid]"
5,40,"CCCCC1CN(c2ccccc2)c2cc(SCC)c(OCC3(C(=O)O)CC3)cc2S(=O)(=O)N1C (single isomer, unassigned) [8, enantiomer 1]"
6.2,–,"CCCCC1CN(c2ccccc2)c2cc(SCC)c(OCC(C)(C)C(=O)O)cc2S(=O)(=O)N1C (single isomer, unassigned) [6, enantiomer 2]"
8.9,–,"CCCCC1CN(c2ccccc2)c2cc(SCC)c(OCC(C)(C)C(=O)O)cc2S(=O)(=O)N1C (centres unmarked) [Example 5, 3-((3-Butyl-7-(ethylthio)-2-methyl-1,1-dioxido-5-phenyl-2,3,4,5-tetrahydro-1,2,5-benzothiadiazepin-8-yl)oxy)-2,2-dimethylpropanoic acid]"
22,–,"CCCCC1CN(c2ccccc2)c2cc(SC)c(OCC(OC)C(=O)O)cc2S(=O)(=O)N1C (single isomer, unassigned) [32, diastereomer 1]"
